Data from patent US5859026A, “Quinoline carboxylic acid” (priority 1995, dated 1999).
Values after ≈ are worked out from the molar mass of the structure shown.

How the values were obtained:
E. coli NIHJ JC-2 = assay: Antibacterial activity (MIC), standard strain; assay type: cell-based; settings: Escherichia coli, NIHJJC2; standard strain E. coli NIHJ JC-2, Gram -, 10^6 viable cells per ml; read-out: minimum inhibitory concentration (MIC)
Description: (§1) 1. Antibacterial spectrum against standard strains and clinically isolated strains

K. pneumoniae PCI-602 = assay: Antibacterial activity (MIC), standard strain; assay type: cell-based; settings: Klebsiella pneumoniae, PCI602; standard strain K. pneumoniae PCI-602, Gram -, 10^6 viable cells per ml; read-out: minimum inhibitory concentration (MIC)
Description: as §1

S. aureus FDA 209P JC-1 = assay: Antibacterial activity (MIC), standard strain; assay type: cell-based; settings: Staphylococcus aureus, FDA209P; standard strain S. aureus FDA 209P JC-1, Gram +, 10^6 viable cells per ml; read-out: minimum inhibitory concentration (MIC)
Description: as §1

S. marcescens IAM 1184 = assay: Antibacterial activity (MIC), standard strain; assay type: cell-based; settings: Serratia marcescens, IAM1184; standard strain S. marcescens IAM 1184, Gram -, 10^6 viable cells per ml; read-out: minimum inhibitory concentration (MIC)
Description: as §1

E. colacae 963 = assay: Antibacterial activity (MIC), standard strain; assay type: cell-based; settings: Enterobacter cloacae; standard strain E. colacae 963, Gram -, 10^6 viable cells per ml; read-out: minimum inhibitory concentration (MIC)
Protocol: as §1
Antibacterial activities (minimum inhibitory concentration: MIC) were determined according to the standard method of the Japan Society of Chemotherapy (Chemotherapy (Tokyo), 29 (1), 76, 1981) by using standard strains and strains isolated from patients of infectious disease (clinically isolated strains) and applying 10^6 viable cells per ml. […].

A. calcoaceticus HNR904 = assay: Antibacterial activity (MIC), clinically isolated strain; assay type: cell-based; settings: Acinetobacter calcoaceticus; clinical isolate A. calcoaceticus HNR904, Gram -, 10^6 viable cells per ml; read-out: minimum inhibitory concentration (MIC)
Description: as §1

A. calcoaceticus HNR916 = assay: as above; assay type: cell-based; settings: Acinetobacter calcoaceticus; clinical isolate A. calcoaceticus HNR916, Gram -, 10^6 viable cells per ml; read-out: minimum inhibitory concentration (MIC)
Description: as §1

E. cloacae HNR1939 = assay: as above; assay type: cell-based; settings: Enterobacter cloacae; clinical isolate E. cloacae HNR1939, Gram -, 10^6 viable cells per ml; read-out: minimum inhibitory concentration (MIC)
Description: as §1

E. cloacae HNR1941 = assay: as above; assay type: cell-based; settings: Enterobacter cloacae; clinical isolate E. cloacae HNR1941, Gram -, 10^6 viable cells per ml; read-out: minimum inhibitory concentration (MIC)
Description: as §1

E. cloacae HNR1946 = assay: as above; assay type: cell-based; settings: Enterobacter cloacae; clinical isolate E. cloacae HNR1946, Gram -, 10^6 viable cells per ml; read-out: minimum inhibitory concentration (MIC)
Description: as §1

E. faecalis HPC948 = assay: as above; assay type: cell-based; settings: Enterococcus faecalis; clinical isolate E. faecalis HPC948, Gram +, 10^6 viable cells per ml; read-out: minimum inhibitory concentration (MIC)
Description: as §1

E. faecalis HPC975 = assay: as above; assay type: cell-based; settings: Enterococcus faecalis; clinical isolate E. faecalis HPC975, Gram +, 10^6 viable cells per ml; read-out: minimum inhibitory concentration (MIC)
Description: as §1

E. faecalis HPC984 = assay: as above; assay type: cell-based; settings: Enterococcus faecalis; clinical isolate E. faecalis HPC984, Gram +, 10^6 viable cells per ml; read-out: minimum inhibitory concentration (MIC)
Description: as §1

K. pneumoniae HNR858 = assay: as above; assay type: cell-based; settings: Klebsiella pneumoniae; clinical isolate K. pneumoniae HNR858, Gram -, 10^6 viable cells per ml; read-out: minimum inhibitory concentration (MIC)
Description: as §1

K. pneumoniae HNR869 = assay: as above; assay type: cell-based; settings: Klebsiella pneumoniae; clinical isolate K. pneumoniae HNR869, Gram -, 10^6 viable cells per ml; read-out: minimum inhibitory concentration (MIC)
Description: as §1

S. aureus HPC308 = assay: as above; assay type: cell-based; settings: Staphylococcus aureus; clinical isolate S. aureus HPC308, Gram +, 10^6 viable cells per ml; read-out: minimum inhibitory concentration (MIC)
Description: as §1

S. aureus HPC527 = assay: as above; assay type: cell-based; settings: Staphylococcus aureus; clinical isolate S. aureus HPC527, Gram +, 10^6 viable cells per ml; read-out: minimum inhibitory concentration (MIC)
Description: as §1

S. aureusHPC292 = assay: as above; assay type: cell-based; settings: Staphylococcus aureus; clinical isolate S. aureus HPC292, Gram +, 10^6 viable cells per ml; read-out: minimum inhibitory concentration (MIC)
Description: as §1

S. marcescens HNR1544 = assay: as above; assay type: cell-based; settings: Serratia marcescens; clinical isolate S. marcescens HNR1544, Gram -, 10^6 viable cells per ml; read-out: minimum inhibitory concentration (MIC)
Description: as §1

S. marcescens HNR1792 = assay: as above; assay type: cell-based; settings: Serratia marcescens; clinical isolate S. marcescens HNR1792, Gram -, 10^6 viable cells per ml; read-out: minimum inhibitory concentration (MIC)
Description: as §1

[1] = test system: Chinese hamster lung cell line (CHL cell); assay: Chromosomal aberration test; assay type: cell-based; settings: 100 μg/ml, 6 hours treatment at 37° C., then 18 hours in fresh medium
Protocol: 2. Chromosomal aberration test
The experiments were carried out using a Chinese hamster lung cell line (CHL cell). The test compounds prepared were added to cultured cells, and cultivation was continued for 6 hours at 37° C. in 5% CO2. 2-(2-furyl)-3-(5-nitro-2-furyl) acrylamide was used as a positive control. After the cultivation for 6 hours, the cells were washed and added with fresh medium, and then cultivation was further continued for 18 hours. Colcemide solution was added to the culture 2 hours before the completion of the cultivation, and the chromosomal specimens were prepared after the cultivation was completed. Incidence rates of aberration cells were measured at the treatments with 100 μg/ml of the test compounds.

Male Hartley guinea pigs = assay: Phototoxicity; assay type: in vivo, guinea pig; settings: 10 mg/kg intravenous, UV exposure 90 minutes, observed 24 hours after irradiation
Protocol: Male Hartley guinea pigs were intravenously administered with test compounds at a dose of 10 mg/kg, and then immediately exposed to WVA on their backs for 90 minutes. Erythemas on the UV irradiated skin were observed 24 hours after the irradiation.

male ICR mice = assay: Induction of convulsions, intraperitoneal (i.p.) administration; assay type: in vivo, mouse; settings: 100 mg/kg i.p., 30 minutes after oral fenbufen 100 mg/kg; for Induction of convulsion, i.p. (number of mice with convulsions): animals with convulsions/animals tested
Description: 4. The induction of convulsions
1) Intraperitoneal (i.p.) administration

A. calcoaceticus HNR939 = assay: Antibacterial activity (MIC), clinically isolated strain; assay type: cell-based; settings: Acinetobacter calcoaceticus; clinical isolate A. calcoaceticus HNR939, Gram -, 10^6 viable cells per ml; read-out: minimum inhibitory concentration (MIC)
Description: as §1

K. pneumoniae HNR828 = assay: as above; assay type: cell-based; settings: Klebsiella pneumoniae; clinical isolate K. pneumoniae HNR828, Gram -, 10^6 viable cells per ml; read-out: minimum inhibitory concentration (MIC)
Description: as §1

S. marcescens HNR1767 = assay: as above; assay type: cell-based; settings: Serratia marcescens; clinical isolate S. marcescens HNR1767, Gram -, 10^6 viable cells per ml; read-out: minimum inhibitory concentration (MIC)
Description: as §1

Male Wistar rats = assay: Induction of convulsions, intracerebroventricular (i.c.v.) administration; assay type: in vivo, rat; settings: 30 minutes after i.p. fenbufen 50 mg/kg, observed at least 4 hours
Protocol: 2) Intracerebroventricular (i.c.v.) administration
Male Wistar rats (weighing 180-220 g) were anesthetized with sodium pentobarbital at 45 mg/kg, i.p., and then the head of the rat was fixed in a stereotaxic apparatus. A stainless steel guide cannula for intracerebroventricular injectionin in 0.6 mm diameter was implanted as a guide cannula so as to be positioned at 1.5 mm above the left lateral cerebroventricle (A:6.2,R:1.0,H:+1.0) according to the brain atlas of De Groot (1959). The guide cannula was fixed by using a dental cement, and then closed with a stainless steel stylet in 0.3 mm diameter. Potassium penicillin G (10,000 units) were subcutaneously administered to prevent an infection. The rats were subjected to the experiments after recovery time for several days from the surgery.
For the measurement of the induction of convulsions, 50 mg/kg of fenbufen was intraperitoneally administered, and then the test compound was intracerebroventricularly administered after 30 minutes from the administration of fenbufen by means of a stainless steel cannula in 0.3 mm diameter that was connected with a polyethylene catheter and adjusted so as to be 1.5 mm longer than the guide cannula for an administration at an accurate position of cerebroventricle (H:+1.0). […] After the completion of the above experiment, the administered positions were confirmed by intraventricularly injecting 10 μl of 1% Evans blue to each of the rats, and followed by sectioning the brains.

Row | Structure (SMILES) | MIC (E. coli NIHJ JC-2) | MIC (K. pneumoniae PCI-602) | MIC (S. aureus FDA 209P JC-1) | MIC (S. marcescens IAM 1184) | MIC (E. colacae 963) | MIC (A. calcoaceticus HNR904) | MIC (A. calcoaceticus HNR916) | MIC (E. cloacae HNR1939) | MIC (E. cloacae HNR1941) | MIC (E. cloacae HNR1946) | MIC (E. faecalis HPC948) | MIC (E. faecalis HPC975) | MIC (E. faecalis HPC984) | MIC (K. pneumoniae HNR858) | MIC (K. pneumoniae HNR869) | MIC (S. aureus HPC308) | MIC (S. aureus HPC527) | MIC (S. aureusHPC292) | MIC (S. marcescens HNR1544) | MIC (S. marcescens HNR1792) | other results
1 | Cc1c(N2C[C@@H](N)[C@@H](C)C2)c(F)c(N)c2c(=O)c(C(=O)O)cn(C3CC3)c12 [Compound 1, 5-amino-7-((3S,4S)-3-amino-4-methyl-1-pyrrolidinyl)-1-cyclopropyl-6-fluoro-1,4-dihydro-8-methyl-4-oxoquinoline-3-carboxylic acid] | 0.006 µg/mL (≈ 0.016 µM) | 0.0008 µg/mL (≈ 0.00214 µM) | 0.006 µg/mL (≈ 0.016 µM) | 0.05 µg/mL (≈ 0.134 µM) | 0.012 µg/mL (≈ 0.032 µM) | 1.56 µg/mL (≈ 4.17 µM) | 0.006 µg/mL (≈ 0.016 µM) | 0.1 µg/mL (≈ 0.267 µM) | 3.13 µg/mL (≈ 8.36 µM) | 0.1 µg/mL (≈ 0.267 µM) | 0.1 µg/mL (≈ 0.267 µM) | 0.78 µg/mL (≈ 2.08 µM) | 0.05 µg/mL (≈ 0.134 µM) | 0.1 µg/mL (≈ 0.267 µM) | 0.78 µg/mL (≈ 2.08 µM) | 0.2 µg/mL (≈ 0.534 µM) | 0.006 µg/mL (≈ 0.016 µM) | 0.78 µg/mL (≈ 2.08 µM) | 0.025 µg/mL (≈ 0.0668 µM) | 1.56 µg/mL (≈ 4.17 µM) | incidence rate of the aberration cells [1]: less than 10%; Phototoxicity (in words) (Male Hartley guinea pigs): induced no phototoxicity; Phototoxicity (number of guinea pigs with erythemas) (Male Hartley guinea pigs; animals with erythemas/animals tested): 0/5; Induction of convulsions, i.p. (in words) (male ICR mice): did not induce convulsions; Induction of convulsion, i.p. (number of mice with convulsions) (male ICR mice): 0/6
2 | CC[C@H]1CN(c2c(F)c(N)c3c(=O)c(C(=O)O)cn(C4CC4)c3c2C)C[C@H]1N [Compound 2, 5-amino-7-((3S,4S)-3-amino-4-ethyl-1-pyrrolidinyl)-1-cyclopropyl-6-fluoro-1,4-dihydro-8-methyl-4-oxoquinoline-3-carboxylic acid] | 0.012 µg/mL (≈ 0.0309 µM) | ≤ 0.0015 µg/mL | 0.006 µg/mL (≈ 0.0154 µM) | 0.1 µg/mL (≈ 0.257 µM) | 0.025 µg/mL (≈ 0.0644 µM) | 3.13 µg/mL (≈ 8.06 µM) | 0.012 µg/mL (≈ 0.0309 µM) | 0.2 µg/mL (≈ 0.515 µM) | 6.25 µg/mL (≈ 16.1 µM) | 0.2 µg/mL (≈ 0.515 µM) | 0.2 µg/mL (≈ 0.515 µM) | 0.78 µg/mL (≈ 2.01 µM) | 0.05 µg/mL (≈ 0.129 µM) | 0.2 µg/mL (≈ 0.515 µM) | 1.56 µg/mL (≈ 4.02 µM) | 0.1 µg/mL (≈ 0.257 µM) | 0.006 µg/mL (≈ 0.0154 µM) | 0.78 µg/mL (≈ 2.01 µM) | 0.05 µg/mL (≈ 0.129 µM) | 1.56 µg/mL (≈ 4.02 µM) | MIC (A. calcoaceticus HNR939): 0.2 µg/mL (≈ 0.515 µM); MIC (K. pneumoniae HNR828): 3.13 µg/mL (≈ 8.06 µM); MIC (S. marcescens HNR1767): 12.5 µg/mL (≈ 32.2 µM)
3 | O=C(O)c1cn(C2CC2)c2cc(N3CCNCC3)c(F)cc2c1=O [Reference Compound A, Ciprofloxacin] | – | – | – | – | – | – | – | – | – | – | – | – | – | – | – | – | – | – | – | – | incidence rate of the aberration cells [1]: less than 10%; Induction of convulsions, i.p. (in words) (male ICR mice): convulsions were observed in the half of the animals; Induction of convulsion, i.p. (number of mice with convulsions) (male ICR mice): 3/6; Induction of convulsions, i.c.v. (in words) (Male Wistar rats): convulsions were observed in all of the animals (each three animals); Induction of convulsion, i.c.v. (number of rats with convulsions) (Male Wistar rats; animals with convulsions/animals tested): 3/3
